This is an account of results in patent publication US9370542B2, “Medical composition containing Stauntonia hexaphylla extract” (JEONNAM BIOINDUSTRY FOUNDATION, priority 2011, dated 2016).

This test concerns fever induced by lipopolysaccharide (LPS). Put plainly: LPS-induced fever, antipyretic effect of leaf extract (Example 9-1). Type of test: in vivo, Sprague-Dawley male white rats. The method, then: Test animals were used to determine antipyretic effects of the Stauntonia Hexaphylla leaf extract and fractions thereof prepared in Example 1.
The test animals herein used were 5-week old Sprague-Dawley male white mice obtained from Samtako Inc. (Korea). The test animals were bred at a temperature of 20° C. to 24° C. and at a humidity of 60% to 70% under the day-night illumination condition at 12-hour intervals and were freely fed with water and feed. The feed used herein was a solid feed (Samyang Feed Co., Korea). The test animals were bred under the same conditions for 7 days, adapted to laboratory environments and then used for testing.
Specifically, 5 mice were randomly selected from the test animals and set as a first group, and 500 μg/kg of lipopolysaccharide (LPS, Sigma, USA) was intraperitoneally injected into the mice to induce fever. Body temperature was measured as follows. Rectal body temperature was measured using a rectal thermometer (Portable Thermocouple Thermometer (Physitemp Instruments, USA) and a stainless steel rectal probe for rats (Physitemp Instruments, USA) and body temperatures of SD mice were measured three times before the test to minimize an temperature increase caused by temperature measurement stress.
First, in order to determine antipyretic effects of the Stauntonia Hexaphylla leaf hot water extract, a negative control group (LPS) not treated with any sample, a first positive control group (APAP) orally administered with 50 mg/kg of acetaminophen (APAP, Sigma, USA), a conventional drug, found to have antipyretic effect, and a second positive control group (Dexamethasone) orally administered with 1 mg/kg of dexamethasone (Sigma, USA) were used.
First, 500 μg/kg of a fever-inducing substance (LPS) was intraperitoneally injected (i.p.) into the test animals that finished preparations for minimization of temperature increase caused by temperature measurement stress, and a non-treated group (LPS), a group (SHL-200) orally administered with 200 mg/kg of the Stauntonia Hexaphylla leaf hot water extraction, a group (APAP) orally administered with 50 mg/kg of acetaminophen, and a group (Dexamethasone) orally administered with 1 mg/kg of dexamethasone were prepared according to type of test groups. In addition, 200 mg/kg of the Stauntonia Hexaphylla leaf hot water extract was orally administered one hour after administration of the fever-inducing substance (SHL-200 (1 h)), and rectal temperatures were measured at one hour, 4 hours and 8 hours over 8 hours in total after the administration of the fever-inducing substance. The measurement results are shown in FIG. 12 and the following Table 3. Values of the following Table 3 mean body temperatures (° C.) measured at different times.

In the case of `CC(=O)Nc1ccc(O)cc1` [APAP, acetaminophen], the “body temperature (rectal)” value was determined as 37.2 °C (0 h, 50 mg/kg oral with LPS 500 μg/kg i.p.); 36.58 ± 0.67 °C (1 h, 50 mg/kg oral with LPS 500 μg/kg i.p.); 37.53 ± 0.59 °C (4 h, 50 mg/kg oral with LPS 500 μg/kg i.p.); 37.78 ± 0.13 °C (8 h, 50 mg/kg oral with LPS 500 μg/kg i.p.).
In the case of `C[C@@H]1C[C@H]2[C@@H]3CCC4=CC(=O)C=C[C@]4(C)[C@@]3(F)[C@@H](O)C[C@]2(C)[C@@]1(O)C(=O)CO` [Dexamethasone, dexamethasone], the “body temperature (rectal)” value (0 h, 1 mg/kg oral with LPS 500 μg/kg i.p.) came to 37.2 °C; the “body temperature (rectal)” value (1 h, 1 mg/kg oral with LPS 500 μg/kg i.p.) came to 37.3 ± 0.52 °C; the “body temperature (rectal)” value (4 h, 1 mg/kg oral with LPS 500 μg/kg i.p.) was 37.6 ± 0.12 °C; the “body temperature (rectal)” value (8 h, 1 mg/kg oral with LPS 500 μg/kg i.p.) is 37.73 ± 0.13 °C.
